Several values for one entry are separate records, joined by “and”; a condition that tells them apart may be missing. Identical values can stand only once. Inconclusive results and toxic doses are left out.
System: CD2F1 mice, L1210 leukemia ip, survival T/C
Assay: NCI In Vivo Anticancer Drug Screen. Data for tumor model L1210 Leukemia (intraperitoneal) in CD2F1 (CDF1) mice
Details: higher = longer survival
Procedure, shortened: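 Tumor-bearing mice (transplanted tumor) were split into treated and vehicle control groups, and the measured endpoint of each treated group was divided by that of its vehicle controls.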

[1] = endpoint: median survival time, dose: 100.0 mg/kg/injection, schedule: Q01DX005 (ip), vehicle: saline with Tween-80

**Q.** What does the source list for `Nc1ncnc2nc(C(O)C(O)C(O)C(O)CO)[nH]c12` (stereo not given)?
**A.** T/C (endpoint: median survival time, dose: 12.5 mg/kg/injection, schedule: Q01DX005 (ip), vehicle: distilled water + Tween-80): 98 % of control; T/C (endpoint: median survival time, dose: 25.0 mg/kg/injection, schedule: Q01DX005 (ip), vehicle: distilled water + Tween-80): 98 % of control; T/C (endpoint: median survival time, dose: 50.0 mg/kg/injection, schedule: Q01DX005 (ip), vehicle: distilled water + Tween-80): 100 % of control; T/C (endpoint: median survival time, dose: 100.0 mg/kg/injection, schedule: Q01DX005 (ip), vehicle: distilled water + Tween-80): 97 % of control; T/C (endpoint: median survival time, dose: 200.0 mg/kg/injection, schedule: Q01DX005 (ip), vehicle: distilled water + Tween-80): 98 % of control

**Q.** How did the T/C (endpoint: mean survival time, dose: 100.0 mg/kg/injection, schedule: Q01DX001 (ip), vehicle: Klucel (hydroxypropylcellulose) (HPC)) turn out when `Cc1ccc(Cl)c(I)c1` was run?
**A.** 101 % of control

**Q.** What about the T/C (endpoint: mean survival time, dose: 200.0 mg/kg/injection, schedule: Q01DX001 (ip), vehicle: Klucel (hydroxypropylcellulose) (HPC)) of the same compound?
**A.** 103 % of control

**Q.** And the T/C (endpoint: mean survival time, dose: 400.0 mg/kg/injection, schedule: Q01DX001 (ip), vehicle: Klucel (hydroxypropylcellulose) (HPC))?
**A.** 106 % of control

**Q.** What does the source list for `C[n+]1c(-c2ccc(NC(=O)c3ccc(C(=O)Nc4ccc(-c5cn6ccccc6[n+]5C)cc4)cc3)cc2)cn2ccccc21`?
**A.** T/C (endpoint: median survival time, dose: 5.4 mg/kg/injection, schedule: Q01DX005 (ip), vehicle: saline with Tween-80): 200 % of control; T/C (endpoint: median survival time, dose: 6.25 mg/kg/injection, schedule: Q01DX005 (ip), vehicle: saline with Tween-80): 168 % of control; T/C (endpoint: median survival time, dose: 9.0 mg/kg/injection, schedule: Q01DX005 (ip), vehicle: saline with Tween-80): 211 % of control; T/C (endpoint: median survival time, dose: 12.5 mg/kg/injection, schedule: Q01DX005 (ip), vehicle: saline with Tween-80): 200 % of control; T/C (endpoint: median survival time, dose: 15.0 mg/kg/injection, schedule: Q01DX005 (ip), vehicle: saline with Tween-80): 352 % of control; T/C (endpoint: median survival time, dose: 25.0 mg/kg/injection, schedule: Q01DX005 (ip), vehicle: saline with Tween-80): 312 % of control and 341 % of control; T/C (endpoint: median survival time, dose: 42.0 mg/kg/injection, schedule: Q01DX005 (ip), vehicle: saline with Tween-80): 152 % of control; T/C [1]: 86 % of control; T/C (endpoint: median survival time, dose: 116.0 mg/kg/injection, schedule: Q01DX005 (ip), vehicle: saline with Tween-80): 109 % of control

**Q.** What does the source list for `CC(C)c1cc2cc(Br)ccc2o1`?
**A.** T/C (endpoint: mean survival time, dose: 100.0 mg/kg/injection, schedule: Q01DX001 (ip), vehicle: saline): 103 % of control; T/C (endpoint: mean survival time, dose: 200.0 mg/kg/injection, schedule: Q01DX001 (ip), vehicle: saline): 95 % of control

**Q.** Which results are given for `CNC(=O)NC1C(CO)OC2OC(C)(C)OC21` (stereo not given)?
**A.** T/C (endpoint: mean survival time, dose: 100.0 mg/kg/injection, schedule: Q04DX003 (ip), vehicle: saline): 96 % of control; T/C (endpoint: mean survival time, dose: 200.0 mg/kg/injection, schedule: Q04DX003 (ip), vehicle: saline): 94 % of control; T/C (endpoint: mean survival time, dose: 400.0 mg/kg/injection, schedule: Q04DX003 (ip), vehicle: saline): 96 % of control

**Q.** What does the source list for `CC(=O)c1ccc2c(c1)Cc1cc(C(C)=O)ccc1-2`?
**A.** T/C (endpoint: mean survival time, dose: 100.0 mg/kg/injection, schedule: Q04DX003 (ip), vehicle: saline sonified): 96 % of control; T/C (endpoint: mean survival time, dose: 200.0 mg/kg/injection, schedule: Q04DX003 (ip), vehicle: saline sonified): 93 % of control; T/C (endpoint: mean survival time, dose: 400.0 mg/kg/injection, schedule: Q04DX003 (ip), vehicle: saline sonified): 98 % of control

**Q.** Which T/C (endpoint: mean survival time, dose: 25.0 mg/kg/injection, schedule: Q01DX009 (ip), vehicle: Klucel (hydroxypropylcellulose) (HPC)) does the source give for `Cc1cc(N(CCI)CCI)ccc1N=Nc1ccccc1C(=O)O` here?
**A.** 122 % of control

**Q.** And the T/C (endpoint: mean survival time, dose: 50.0 mg/kg/injection, schedule: Q01DX009 (ip), vehicle: Klucel (hydroxypropylcellulose) (HPC))?
**A.** 122 % of control

**Q.** And the T/C (endpoint: mean survival time, dose: 100.0 mg/kg/injection, schedule: Q01DX009 (ip), vehicle: Klucel (hydroxypropylcellulose) (HPC))?
**A.** 122 % of control

**Q.** For `O=C(Nc1ccccc1CCl)Nc1ccccc1CCl`, which T/C (endpoint: median survival time, dose: 50.0 mg/kg/injection, schedule: Q01DX005 (ip), vehicle: saline with Tween-80) is on record?
**A.** 111 % of control

**Q.** And the T/C [1]?
**A.** 117 % of control

**Q.** What about the T/C (endpoint: median survival time, dose: 200.0 mg/kg/injection, schedule: Q01DX005 (ip), vehicle: saline with Tween-80) of the same compound?
**A.** 115 % of control

**Q.** And the T/C (endpoint: median survival time, dose: 400.0 mg/kg/injection, schedule: Q01DX005 (ip), vehicle: saline with Tween-80)?
**A.** 121 % of control

**Q.** `Cc1cc2c(C)c3cc(C)c(N)cc3nc2cc1N` was tested. Which T/C (endpoint: mean survival time, dose: 75.0 mg/kg/injection, schedule: Q01DX001 (ip), vehicle: saline) did it give?
**A.** 103 % of control

**Q.** For `O=C(O)/C=C\C(=O)Nc1ccc(Cl)cc1`, which T/C (endpoint: mean survival time, dose: 100.0 mg/kg/injection, schedule: Q01DX009 (ip), vehicle: saline with Tween-80) is on record?
**A.** 102 % of control

**Q.** What about the T/C (endpoint: mean survival time, dose: 100.0 mg/kg/injection, schedule: Q04DX003 (ip), vehicle: saline with Tween-80) of the same compound?
**A.** 108 % of control

**Q.** And the T/C (endpoint: mean survival time, dose: 200.0 mg/kg/injection, schedule: Q01DX009 (ip), vehicle: saline with Tween-80)?
**A.** 93 % of control

**Q.** And the T/C (endpoint: mean survival time, dose: 200.0 mg/kg/injection, schedule: Q04DX003 (ip), vehicle: saline with Tween-80)?
**A.** 97 % of control

**Q.** And the T/C (endpoint: mean survival time, dose: 400.0 mg/kg/injection, schedule: Q01DX009 (ip), vehicle: saline with Tween-80)?
**A.** 98 % of control

**Q.** What about the T/C (endpoint: mean survival time, dose: 400.0 mg/kg/injection, schedule: Q04DX003 (ip), vehicle: saline with Tween-80) of the same compound?
**A.** 94 % of control

**Q.** Which T/C (endpoint: mean survival time, dose: 12.5 mg/kg/injection, schedule: Q04DX003 (ip), vehicle: Klucel (hydroxypropylcellulose) (HPC)) does the source give for `CC(=O)Oc1ccc(N2C(=O)C=CC2=O)cc1` here?
**A.** 96 % of control

— PubChem BioAssay AID256 (DTP/NCI, 2004)
